How the values were obtained:
Assay type in all cases: cell-based, human
[1] = test system: four tested cancer cell lines (A-549, MCF-7, Panc-1, HT-29); experiment: Antiproliferative assay, average over the four cell lines; conditions: for GI50: Homo sapiens, mean of the four cancer cell lines; for fold less potent than 4a (GI50): relative to 4a
Description: The newly synthesized compounds were tested for antiproliferative activity against four different types of cancer cells: A-549 (epithelial cancer cell line), MCF-7 (breast cancer cell line), Panc-1 (pancreas cancer cell line), and HT-29 (colon cancer cell line).
After 24 h, medium was removed from the plates and the compounds in (in 0.1% DMSO) were added (in 200 μL medium to yield a final concentration of 0.1% v/v) to the wells of plates. A single compound was designated with four wells followed by incubation of plates for 96h at 37°C. After incubation, medium was removed completely from the plates followed by addition of MTT (0.4 mg/mL in medium) to each well and subsequent incubation of plates for 3h. MTT (along with the medium) was removed and DMSO (150μL) was added to each well of the culture plates, followed by vortexing and subsequent measurement of absorbance (at 540 nm) using microplate reader. The data are shown as percentage inhibition of proliferation in comparison with controls containing 0.1% 4.2.1.2. Assay for antiproliferative effect
To explore the antiproliferative potential of compounds MTT assay was performed according to previously reported procedure using different cell lines to explore the antiproliferative potential of compounds propidium iodide fluorescence assay was performed using different cell lines. To calculate the total nuclear DNA, a fluorescent dye (propidium iodide, PI) is used which can attach to the DNA, thus offering a quick and precise technique. PI cannot pass through the cell membrane and its signal intensity can be considered as directly proportional to quantity of cellular DNA. Cells whose cell membranes are damaged or have changed permeability are counted as dead ones. The assay was performed by seeding the cells of different cell lines at a density of 3000-7500 cells/well (in 200µl medium) in culture plates followed by incubation for 24h at 37 °C in humidified 5% CO2/95% air atmospheric conditions. The medium was removed; the compounds were added to the plates at 10 µM concentrations (in 0.1% DMSO) in triplicates, followed by incubation for 48 h. DMSO (0.1%) was used as control. After incubation, medium was removed followed by the addition of PI (25 µl, 50µg/mL in water/medium) to each well of the plates. At -80 °C, the plates were allowed to freeze for 24 h, followed by thawing at 25 °C. A fluorometer (Polar-Star BMG Tech) was used to record the readings at excitation and emission wavelengths of 530 and 620 nm for each well. The percentage cytotoxicity of compounds was calculated using the following formula:
Where ATC= Absorbance of treated cells and AC= Absorbance of control. Erlotinib was used as positive control in the assay.

[2] = Cell viability assay (MTT) on normal cell line; conditions: human, MCF-10A mammary gland epithelial cells, four days
Description: A cell viability test was performed using MCF-10A (human mammary gland epithelial) cell line to investigate the effect of 4a–e and 7a–e on normal cell lines. In this investigation, a concentration of 50 µM of the studied compound is employed for four days, after which cell viability is assessed.
(§1) 4.2. Biological evaluation
4.2.1. Cytotoxic activity using MTT Assay and evaluation of IC50
MTT assay was carried out to study the effect of compounds on mammary epithelial cells (MCF-10A). The medium in which cells were propagated contained Dulbecco's modified Eagle's medium (DMEM)/ Ham's F-12 medium (1:1) supplemented with epidermal growth factor (20 ng/mL), hydrocortisone (500 ng/mL), insulin (10 μg/mL), 2 mM glutamine and 10% foetal calf serum. After every 2-3 days, the cells were passaged using trypsin ethylenediamine tetra acetic acid (EDTA). The cells were seeded at a density of 10^4 cells mL-1 in flat-bottomed culture plates containing 96 wells each. After 24 h, medium was removed from the plates and the compounds in (in 0.1% DMSO) were added (in 200 μL medium to yield a final concentration of 0.1% v/v) to the wells of plates. A single compound was designated with four wells followed by incubation of plates for 96h at 37°C. After incubation, medium was removed completely from the plates followed by addition of MTT (0.4 mg/mL in medium) to each well and subsequent incubation of plates for 3h. MTT (along with the medium) was removed and DMSO (150μL) was added to each well of the culture plates, followed by vortexing and subsequent measurement of absorbance (at 540 nm) using microplate reader. […]

[3] = test system: A-549 (epithelial cancer cell line); experiment: Antiproliferative assay; conditions: Homo sapiens, A549; read-out: Antiproliferative Activity IC50 ± SEM, A-549
Description: (§2) 4.2.1.2. Assay for antiproliferative effect
(§3) To explore the antiproliferative potential of compounds MTT assay was performed according to previously reported procedure using different cell lines to explore the antiproliferative potential of compounds propidium iodide fluorescence assay was performed using different cell lines. To calculate the total nuclear DNA, a fluorescent dye (propidium iodide, PI) is used which can attach to the DNA, thus offering a quick and precise technique. PI cannot pass through the cell membrane and its signal intensity can be considered as directly proportional to quantity of cellular DNA. Cells whose cell membranes are damaged or have changed permeability are counted as dead ones. The assay was performed by seeding the cells of different cell lines at a density of 3000-7500 cells/well (in 200µl […]
(§4) atmospheric conditions. The medium was removed; the compounds were added to the plates at 10 µM concentrations (in 0.1% DMSO) in triplicates, followed by incubation for 48 h. DMSO (0.1%) was used as control. After incubation, medium was removed followed by the addition of PI (25 µl, 50µg/mL in water/medium) to each well of the plates. At -80 °C, the plates were allowed to freeze for 24 h, followed by thawing at 25 °C. A fluorometer (Polar-Star BMG Tech) was used to record the readings at excitation and emission wavelengths of 530 and 620 nm for each well. The percentage cytotoxicity of compounds was calculated using the following formula:
(§5) Where ATC= Absorbance of treated cells and AC= Absorbance of control. […]
(§6) positive control in the assay.

[4] = test system: HT-29 (colon cancer cell line); experiment: Antiproliferative assay; conditions: Homo sapiens, read-out: Antiproliferative Activity IC50 ± SEM, HT-29
Description: as §2, §3, §4, §5, §6

[5] = test system: MCF-7 (breast cancer cell line); experiment: Antiproliferative assay; conditions: Homo sapiens, MCF7; read-out: Antiproliferative Activity IC50 ± SEM, MCF-7
Description: as §2, §3, §4, §5, §6

[6] = test system: Panc-1 (pancreas cancer cell line); experiment: Antiproliferative assay; conditions: Homo sapiens, PANC-1; read-out: Antiproliferative Activity IC50 ± SEM, Panc-1
Description: as §1
4.2.1. Cytotoxic activity using MTT Assay and evaluation of IC50 […]
cells were seeded at a density of 10^4 cells mL-1 in flat-bottomed culture plates containing 96 wells each. After 24 h, medium was removed from the plates and the compounds in (in 0.1% DMSO) were added (in 200 μL medium to yield a final concentration of 0.1% v/v) to the wells of plates. A single […]
incubation, medium was removed completely from the plates followed by addition of MTT (0.4 mg/mL in medium) to each well and subsequent incubation of plates for 3h. MTT (along with the medium) was removed and DMSO (150μL) was added to each well of the culture plates, followed by vortexing and subsequent measurement of absorbance (at 540 nm) using microplate reader. The data […]
as §2, §3, §4, §5, §6

Structure (SMILES) | GI50 [1] | viability at 96 h, 50 µM [2] | IC50 [3] | IC50 [4] | IC50 [5] | IC50 [6] | fold less potent than 4a (GI50) [1]
C#Cc1cccc(Nc2ncnc3cc(OCCOC)c(OCCOC)cc23)c1 [Erlotinib, reference compound] | 33 nM | – | – | – | – | – | –
Cn1c(=O)cc(-n2cc(COc3cccc4cccc(OCc5cn(-c6cc(=O)n(C)c7ccccc67)nn5)c34)nn2)c2ccccc21 [Compound 4e, 4,4′-(((naphthalene-1,8-diylbis(oxy))bis(methylene))bis(1H-1,2,3-triazole-4,1-diyl))-bis-(1-methylquinolin-2(1H)-one)] | 130 nM | 90% | 123 ± 12 nM | 137 ± 13 nM | 127 ± 12 nM | 135 ± 13 nM | approximately 4 fold
Cc1ccc2[nH]c(=O)cc(-n3cc(COc4cccc5c(OCc6cn(-c7cc(=O)[nH]c8ccc(C)cc78)nn6)cccc45)nn3)c2c1 [Compound 7b, 4,4′-(((naphthalene-1,5-diylbis(oxy))bis(methylene))bis(1H-1,2,3-triazole-4,1-diyl))-bis-(6-methylquinolin-2(1H)-one)] | 65 nM | 93% | 63 ± 6 nM | 67 ± 6 nM | 65 ± 6 nM | 67 ± 6 nM | –
Cn1c(=O)cc(-n2cc(COc3cccc4c(OCc5cn(-c6cc(=O)n(C)c7ccccc67)nn5)cccc34)nn2)c2ccccc21 [Compound 7e, 4,4′-(((naphthalene-1,5-diylbis(oxy))bis(methylene))bis(1H-1,2,3-triazole-4,1-diyl))-bis-(1-methylquinolin-2(1H)-one)] | 134 nM | 85% | 126 ± 13 nM | 143 ± 14 nM | 130 ± 13 nM | 136 ± 13 nM | approximately 4 fold
